{
  "source": "patent US11116774B2",
  "about": "“Modulators of toll-like receptors for the treatment of HIV” (Gilead Sciences, Inc., priority 2014, dated 2021)",
  "key": {"[1]": {"test_system": "peripheral NK cells (CD3-CD8+ NKG2A+CD16+CD56+)", "assay": "Peripheral lymphocyte activation, CD69 by flow cytometry: NK cells (Example 206)", "format": "in vivo, rhesus macaque", "source_text": "During the course of treatment with the compound of Example 4 as described in Example 204, peripheral lymphocyte activation was monitored in the groups dosed with the compound of Example 4 or the dosing vehicle of Example 201 (placebo), by measuring the expression of the early activation marker CD69 on various lymphocyte subsets by flow cytometry methodology. This methodology was used to quantify the percentage of immune cell subsets expressing the early activation marker. Standard data acquisition techniques were employed on a flow cytometer and by the use of antibodies conjugated to fluorescent molecules where the antibodies recognize rhesus macaque cell surface proteins on various immune cell subsets. In animals dosed with the compound of Example 4, whole blood samples were collected for each dose at various time points both at pre- and post-administration of compound. Total PBMCs were stained in the whole blood samples using antibodies that were chosen to be reactive to rhesus CD3, CD4, CD8, NKG2A, CD16 and CD56, each conjugated to different fluorescent probes to delineate CD3+CD4+CD8− lymphocytes, CD3+CD4−CD8+ lymphocytes and CD3-CD8+ NKG2A+CD16+ CD56+ NK cells. The flow cytometry data presented herein are from animals treated with the compound of Example 4."}, "[2]": {"test_system": "HIV in PBMCs from HIV-infected donors on suppressive cART", "assay": "Activation of HIV by Example 49 ex vivo in PBMCs (Example 210)", "format": "cell-based, human", "conditions": "N = 18 donors, day 4", "procedure": "PBMCs from 18 HIV-infected donors (Donor IDs 152-169) on suppressive cART were isolated, as described previously in Materials and Methods (PBMC Isolation), and immediately added to tissue culture plates pre-equilibrated at 37° C. with media containing DMSO or the compound of Example 49 (GS-9620) at 0.1 uM or 1.0 uM. At day 4 after treatment, cell-free culture supernatants were collected and HIV viral RNA was quantitated using the automated COBAS® AmpliPrep/COBAS® TaqMan® HIV-1 Test, v2.0 system (Roche Diagnostics, Indianapolis, Ind.), as described previously in Materials and Methods (HIV-1 Activation Assay). Geometric mean fold HIV activations from three independent wells for each donor and each condition were expressed as a ratio of HIV-1 RNA copies/ml detected in culture supernatants from TLR7 agonist treated and DMSO treated wells. Fold HIV activation values were plotted using GraphPad Prism software (GraphPad, San Diego, Calif.) and can be seen in FIG. 7. The dashed line indicates 2-fold induction."}, "[3]": {"test_system": "polyfunctional proliferating CD8 T cells (CFSE low, IFNg+, TNFa+)", "assay": "Induction of HIV-specific polyfunctional CD8 T cells ex vivo (Example 216)", "format": "cell-based, human", "conditions": "PBMCs from 5 HIV-infected donors, HIV peptide pools", "procedure": "PBMCs from 5 HIV-infected donors (Donor IDs 178-180 and 182-183) on suppressive cART were isolated, as described previously, and stained with carboxyfluorescein succinimiyl ester (CFSE). PBMC cultures were treated with DMSO or the compound of Example 49 (GS-9620) at 0.1 or 1 uM. Cultures were incubated at 37° C. for 2 days and treated with 500 ng/ml 15-mer peptide pools derived from overlapping HIV gag, pol, nef, and env consensus peptides (JPT Peptide Technologies GmbH). Cells were incubated at 37° C. for 8 days. Cultures were split into duplicate sets and stained in dulbecco's phosphate buffered saline (DPBS) with LIVE/DEAD Fixable Aqua Dead Cell Stain (Life Technologies). The immune recall response was performed as follows. One culture set was treated with the same HIV peptide pools and the other set was treated with 500 ng/ml CMV/EBV/Flu/Tetanus (CEFT) peptides (JPT Peptide Technologies GmbH). After one hour at 37° C., cultures were treated with 0.7 μl GolgiStop (BD Biosciences) containing monensin and 1 μl GolgiPlug (BD Biosciences) containing brefeldin A. Cultures were incubated for 3 additional hours at 37° C. and stained for 15 minutes with anti-CD4-v450, anti-CD3-AlexaFlour 700, and anti CD8-APC-H7 (BD Biosciences). Cultures were fixed with IC Fixation Buffer (eBioscience) and permeabilized with Permeabilization Buffer (eBioscience). […]"}},
  "data": [
    {"compound": "CCCCOc1nc(N)c2c(n1)N(Cc1ccc(CN3CCCC3)cc1)CC(=O)N2", "note": "[Example 4]", "values": [
      {"measurement": "mean maximum percent change in CD69 expression on NK cells", "setting": "[1]; dose 0.1 mg/kg, any time point (rise by 24 to 72 hours post-dose), pre-dose range 89-95%", "value": 6.5, "unit": "%"},
      {"measurement": "mean maximum percent change in CD69 expression on NK cells", "setting": "[1]; dose 0.2 mg/kg, pre-dose range 83-95%", "value": 9.5, "unit": "%"},
      {"measurement": "mean maximum percent change in CD69 expression on NK cells", "setting": "[1]; first dose of 0.3 mg/kg, pre-dose range 84-95%", "value": 8.3, "unit": "%"},
      {"measurement": "mean maximum percent change in CD69 expression on NK cells", "setting": "[1]; second dose of 0.3 mg/kg, pre-dose range 82-97%", "value": 8.7, "unit": "%"}
    ]},
    {"compound": "CCCCOc1nc(N)c2c(n1)N(Cc1cccc(CN3CCCC3)c1)CC(=O)N2", "note": "[Example 49]", "values": [
      {"measurement": "Fold geometric mean (HIV activation)", "setting": "[2]; 100 nM", "value": 9.3, "unit": "fold"},
      {"measurement": "Fold range (HIV activation)", "setting": "[2]; 100 nM", "value": "2.7-26.6 fold"},
      {"measurement": "N (%) with ≥2-fold activation", "setting": "[2]; 100 nM", "value": "10 (56) N (%)"},
      {"measurement": "Fold geometric mean (HIV activation)", "setting": "[2]; 1,000 nM", "value": 6.5, "unit": "fold"},
      {"measurement": "Fold range (HIV activation)", "setting": "[2]; 1,000 nM", "value": "2.0-21.5 fold"},
      {"measurement": "N (%) with ≥2-fold activation", "setting": "[2]; 1,000 nM", "value": "11 (61) N (%)"},
      {"measurement": "Fold geometric mean (HIV activation)", "setting": "[2]; 100 and/or 1,000 nM", "value": 9.1, "unit": "fold"},
      {"measurement": "Fold range (HIV activation)", "setting": "[2]; 100 and/or 1,000 nM", "value": "2.0-26.6 fold"},
      {"measurement": "N (%) with ≥2-fold activation", "setting": "[2]; 100 and/or 1,000 nM", "value": "13 (72) N (%)"},
      {"measurement": "increase of mean level of polyfunctional proliferating CD8 T cells compared to DMSO", "setting": "[3]; 0.1 uM, p<0.05", "value": 9.0, "unit": "fold"},
      {"measurement": "increase of mean level of polyfunctional proliferating CD8 T cells compared to DMSO", "setting": "[3]; 1 uM, p<0.005", "value": 7.5, "unit": "fold"}
    ]}
  ]
}
